Results from ChEMBL document CHEMBL1201862, “PubChem BioAssay data set” (2004).
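Grown in 96-well plates, cells were treated for 48 hours with each compound at five concentrations. Insufficient inhibition: endpoint recorded as highest concentration tested. The concentration for 50% growth inhibition is given as GI50.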 Active and inactive are the calls of the source. Cut-off read from the data, not from the text of the source: active = GI50 up to about 1.1 µM and inactive = higher.

Key:
Experiment in all cases: inhibition of tumour cell growth, NCI panel, 48 h
786-0 = system: 786-0
EKVX = system: EKVX
HCT-15 = system: HCT-15
HL-60 = system: HL-60
HOP-62 = system: HOP-62
HT-29 = system: HT-29
M19-MEL = system: M19-MEL
MOLT-4 = system: MOLT-4
Malme-3M = system: Malme-3M
NCI-H460 = system: NCI-H460
OVCAR-3 = system: OVCAR-3
OVCAR-5 = system: OVCAR-5
SN12C = system: SN12C
SW-620 = system: SW-620
U-251 = system: U-251
SNB-78 = system: SNB-78

Structure (SMILES)	GI50 (786-0)	GI50 (EKVX)	GI50 (HCT-15) [µM]	GI50 (HL-60)	GI50 (HOP-62)	GI50 (HT-29)	GI50 (M19-MEL)	GI50 (MOLT-4)	GI50 (Malme-3M)	GI50 (NCI-H460)	GI50 (OVCAR-3)	GI50 (OVCAR-5)	GI50 (SN12C)	GI50 (SW-620)	GI50 (U-251)	GI50 (SNB-78)
CCC1(CC)C(=O)NC(=S)N=C1N	> 100 µM (inactive)	> 100 µM (inactive)	> 100	> 100 µM (inactive)	> 100 µM (inactive)	> 100 µM (inactive)	> 100 µM (inactive)	> 100 µM (inactive)	> 100 µM (inactive)	> 100 µM (inactive)	> 100 µM (inactive)	> 100 µM (inactive)	> 100 µM (inactive)	> 100 µM (inactive)	> 100 µM (inactive)	
CCc1cccc(C)c1NC(=O)C1=C(C)NC(C)=C(C(=O)Nc2c(C)cccc2CC)C1c1ccc([N+](=O)[O-])cc1	72.8 µM (inactive)	27.8 µM (inactive)		17.9 µM (inactive)	40.1 µM (inactive)	44.5 µM (inactive)	38.1 µM (inactive)	11.6 µM (inactive)	75.3 µM (inactive)	28.6 µM (inactive)	44.9 µM (inactive)	> 100 µM (inactive)	45.7 µM (inactive)	72.1 µM (inactive)	60 µM (inactive)	97.1 µM (inactive)
O=c1[nH]c(=O)n([C@@H]2C[C@H](CO)[C@H](O)C2)cc1/C=C/Br	> 100 µM (inactive)	> 100 µM (inactive)	> 100	> 100 µM (inactive)	> 100 µM (inactive)	> 100 µM (inactive)	> 100 µM (inactive)	> 100 µM (inactive)	> 100 µM (inactive)	> 100 µM (inactive)	> 100 µM (inactive)	> 100 µM (inactive)		> 100 µM (inactive)	> 100 µM (inactive)	> 100 µM (inactive)
Cc1ccc(NC(=O)CC/C(CC(=O)C(C)(C)C)=N\Nc2ccc([N+](=O)[O-])cc2[N+](=O)[O-])cc1C	79.6 µM (inactive)	> 100 µM (inactive)	41.5	> 10 µM (inactive)	0.0522 µM (active)	57 µM (inactive)	47.5 µM (inactive)	28.8 µM (inactive)		56.8 µM (inactive)	0.0195 µM (active)	> 100 µM (inactive)		46.3 µM (inactive)	58.1 µM (inactive)	> 100 µM (inactive)
NC1=NN(c2ccccc2)C(=O)C1C(=O)CCC(=O)Nc1cccc(Cl)c1 (configuration not stated)	> 100 µM (inactive)	> 100 µM (inactive)	> 100	> 100 µM (inactive)	> 100 µM (inactive)	> 100 µM (inactive)	> 100 µM (inactive)		> 100 µM (inactive)	> 100 µM (inactive)	> 100 µM (inactive)	> 100 µM (inactive)	> 100 µM (inactive)	> 100 µM (inactive)	> 100 µM (inactive)	> 100 µM (inactive)
N#CC(c1ccccn1)c1nc2ccccc2[nH]1 (configuration not stated)	97.5 µM (inactive)	> 100 µM (inactive)		32.3 µM (inactive)	> 100 µM (inactive)	> 100 µM (inactive)	> 100 µM (inactive)	47.5 µM (inactive)	> 100 µM (inactive)	85.5 µM (inactive)	> 100 µM (inactive)	> 100 µM (inactive)	> 100 µM (inactive)	> 100 µM (inactive)	> 100 µM (inactive)	> 100 µM (inactive)
O=c1cc(-c2ccccc2)nc(/C=C(\O)c2ccncc2)n1-c1ccccc1	> 100 µM (inactive)	> 100 µM (inactive)	> 100	> 100 µM (inactive)	> 100 µM (inactive)	> 100 µM (inactive)	> 100 µM (inactive)		> 100 µM (inactive)	> 100 µM (inactive)	> 100 µM (inactive)	> 100 µM (inactive)	> 100 µM (inactive)	> 100 µM (inactive)	> 100 µM (inactive)	> 100 µM (inactive)
COc1ccc(C(C2=C(O)CC(C)OC2=O)C2=C(O)CC(C)OC2=O)cc1 (configuration not stated)	> 100 µM (inactive)	> 100 µM (inactive)	> 100		> 100 µM (inactive)	> 100 µM (inactive)	> 100 µM (inactive)	> 100 µM (inactive)	> 100 µM (inactive)	> 100 µM (inactive)	> 100 µM (inactive)	> 100 µM (inactive)	> 100 µM (inactive)	> 100 µM (inactive)	> 100 µM (inactive)	> 100 µM (inactive)
OCC(O)C(OC1OC(CO)C(O)C(O)C1O)c1nn(-c2ccc(F)cc2)c2nc3cc(Cl)c(Cl)cc3cc12 (configuration not stated)	> 100 µM (inactive)	> 100 µM (inactive)	> 100		> 100 µM (inactive)	> 100 µM (inactive)	> 100 µM (inactive)	> 100 µM (inactive)	> 100 µM (inactive)	> 100 µM (inactive)	> 100 µM (inactive)	> 100 µM (inactive)	> 100 µM (inactive)		> 100 µM (inactive)	> 100 µM (inactive)
COc1ccc2[nH]c3c4c(c5cc(C(C)(C)C)ccc5c3c2c1)C(=O)N(c1ccccc1)C4=O	> 100 µM (inactive)	> 100 µM (inactive)		> 100 µM (inactive)	> 100 µM (inactive)	> 100 µM (inactive)	> 100 µM (inactive)	> 100 µM (inactive)	> 100 µM (inactive)	> 100 µM (inactive)	> 100 µM (inactive)	> 100 µM (inactive)		> 100 µM (inactive)	27.7 µM (inactive)	> 100 µM (inactive)
CC(C)[C@H](COC(C)(C)C)/N=C/N1CSc2ccccc21	49.8 µM (inactive)	44.1 µM (inactive)	84.9	26.4 µM (inactive)	41.2 µM (inactive)	28.9 µM (inactive)	36.6 µM (inactive)	36.1 µM (inactive)		33 µM (inactive)	23 µM (inactive)	> 100 µM (inactive)	28.1 µM (inactive)	35.4 µM (inactive)	32.5 µM (inactive)	30 µM (inactive)
CCCCCCCCCCCCC(Br)C(C)=O (configuration not stated)	> 100 µM (inactive)	> 100 µM (inactive)	> 100	> 100 µM (inactive)	> 100 µM (inactive)	> 100 µM (inactive)	> 100 µM (inactive)		> 100 µM (inactive)	> 100 µM (inactive)	> 100 µM (inactive)	> 100 µM (inactive)	> 100 µM (inactive)	> 100 µM (inactive)	> 100 µM (inactive)	> 100 µM (inactive)
COc1ccc(/C=N/N=C(\N)NO)c(Cl)c1O	18.4 µM (inactive)	10 µM (inactive)	5.46		6.21 µM (inactive)		1.48 µM (inactive)	3.43 µM (inactive)	28.4 µM (inactive)		4.69 µM (inactive)	1.91 µM (inactive)	27.4 µM (inactive)	19.4 µM (inactive)	26.8 µM (inactive)	34.1 µM (inactive)
Cc1ccccc1NC(=O)/C=N/O	> 100 µM (inactive)	22 µM (inactive)	> 100	0.429 µM (active)	> 100 µM (inactive)	> 100 µM (inactive)	> 100 µM (inactive)	> 100 µM (inactive)	> 100 µM (inactive)		> 100 µM (inactive)	> 100 µM (inactive)	> 100 µM (inactive)	> 100 µM (inactive)	> 100 µM (inactive)	
COC(c1ccccc1)C(c1ccccc1)N1CCOCC1 (configuration not stated)	> 100 µM (inactive)	> 100 µM (inactive)		89.5 µM (inactive)	> 100 µM (inactive)	> 100 µM (inactive)	> 100 µM (inactive)	> 100 µM (inactive)	> 100 µM (inactive)	> 100 µM (inactive)	> 100 µM (inactive)	> 100 µM (inactive)	> 100 µM (inactive)	> 100 µM (inactive)	> 100 µM (inactive)	> 100 µM (inactive)
O=C1C(Cl)C(c2ccccc2O)N1n1cnc2ccccc2c1=O (configuration not stated)	47.5 µM (inactive)	23.9 µM (inactive)	2.99	13 µM (inactive)	48.5 µM (inactive)	87.3 µM (inactive)	97.3 µM (inactive)	27.6 µM (inactive)	75.3 µM (inactive)	35.2 µM (inactive)	> 100 µM (inactive)	> 100 µM (inactive)	7.08 µM (inactive)	58.7 µM (inactive)	43.3 µM (inactive)	26.2 µM (inactive)
O=C(N/C(=C\c1ccc([N+](=O)[O-])cc1)c1nc2cc(Cl)ccc2[nH]1)c1ccccc1	17.7 µM (inactive)	29.4 µM (inactive)	13.3	17.2 µM (inactive)		20.3 µM (inactive)	31.6 µM (inactive)	10.1 µM (inactive)	35.1 µM (inactive)		21.8 µM (inactive)	11.3 µM (inactive)	20.7 µM (inactive)	19.5 µM (inactive)	15.5 µM (inactive)	23.8 µM (inactive)
Cc1ccc(NC(=O)NC23CC4CC(CC(F)(C4)C2)C3)cc1	> 100 µM (inactive)	92.3 µM (inactive)		64.3 µM (inactive)	> 100 µM (inactive)	53.6 µM (inactive)	> 100 µM (inactive)	40.6 µM (inactive)	> 100 µM (inactive)	> 100 µM (inactive)	> 100 µM (inactive)	> 100 µM (inactive)		> 100 µM (inactive)	> 100 µM (inactive)	> 100 µM (inactive)
CC12CCC(=O)C[C@H]1CCC(OC=O)C2Br (some centres not stated)	> 100 µM (inactive)		> 100	> 100 µM (inactive)	> 100 µM (inactive)	> 100 µM (inactive)	> 100 µM (inactive)	> 100 µM (inactive)	> 100 µM (inactive)	> 100 µM (inactive)	> 100 µM (inactive)	> 100 µM (inactive)	> 100 µM (inactive)	> 100 µM (inactive)	> 100 µM (inactive)	
